Data from patent publication US20240083857A1, “2-Methyl-Quinazolines” (Bayer Pharma Aktiengesellschaft, priority 2017, published 2024).

Columns and labels:
[1] = target: human SOS1 (loading of human K-Ras^G12C-GDP with fluorescent GTP-analog) (Homo sapiens, UniProt Q07889); assay: Biochemical assay 3: K-Ras^G12C activation assay by hSOS1 (HTRF); details: no GTP; for IC50: read-out: Assay 3 (KRAS-Activation by SOS no GTP) activity expressed as IC50; for inhibition at 20 µM: read-out: Assay 3 (KRAS-Activation by SOS no GTP) activity expressed as % inhibition at 20 μM
[2] = target: Epidermal Growth Factor Receptor (EGFR) (Homo sapiens (Human), UniProt P00533); assay: EGFR kinase assay (TR-FRET); type: biochemical; details: values given in μM; read-out: EGFR kinase inhibition IC50
Sequence of Epidermal Growth Factor Receptor (EGFR) (P00533 25-1210): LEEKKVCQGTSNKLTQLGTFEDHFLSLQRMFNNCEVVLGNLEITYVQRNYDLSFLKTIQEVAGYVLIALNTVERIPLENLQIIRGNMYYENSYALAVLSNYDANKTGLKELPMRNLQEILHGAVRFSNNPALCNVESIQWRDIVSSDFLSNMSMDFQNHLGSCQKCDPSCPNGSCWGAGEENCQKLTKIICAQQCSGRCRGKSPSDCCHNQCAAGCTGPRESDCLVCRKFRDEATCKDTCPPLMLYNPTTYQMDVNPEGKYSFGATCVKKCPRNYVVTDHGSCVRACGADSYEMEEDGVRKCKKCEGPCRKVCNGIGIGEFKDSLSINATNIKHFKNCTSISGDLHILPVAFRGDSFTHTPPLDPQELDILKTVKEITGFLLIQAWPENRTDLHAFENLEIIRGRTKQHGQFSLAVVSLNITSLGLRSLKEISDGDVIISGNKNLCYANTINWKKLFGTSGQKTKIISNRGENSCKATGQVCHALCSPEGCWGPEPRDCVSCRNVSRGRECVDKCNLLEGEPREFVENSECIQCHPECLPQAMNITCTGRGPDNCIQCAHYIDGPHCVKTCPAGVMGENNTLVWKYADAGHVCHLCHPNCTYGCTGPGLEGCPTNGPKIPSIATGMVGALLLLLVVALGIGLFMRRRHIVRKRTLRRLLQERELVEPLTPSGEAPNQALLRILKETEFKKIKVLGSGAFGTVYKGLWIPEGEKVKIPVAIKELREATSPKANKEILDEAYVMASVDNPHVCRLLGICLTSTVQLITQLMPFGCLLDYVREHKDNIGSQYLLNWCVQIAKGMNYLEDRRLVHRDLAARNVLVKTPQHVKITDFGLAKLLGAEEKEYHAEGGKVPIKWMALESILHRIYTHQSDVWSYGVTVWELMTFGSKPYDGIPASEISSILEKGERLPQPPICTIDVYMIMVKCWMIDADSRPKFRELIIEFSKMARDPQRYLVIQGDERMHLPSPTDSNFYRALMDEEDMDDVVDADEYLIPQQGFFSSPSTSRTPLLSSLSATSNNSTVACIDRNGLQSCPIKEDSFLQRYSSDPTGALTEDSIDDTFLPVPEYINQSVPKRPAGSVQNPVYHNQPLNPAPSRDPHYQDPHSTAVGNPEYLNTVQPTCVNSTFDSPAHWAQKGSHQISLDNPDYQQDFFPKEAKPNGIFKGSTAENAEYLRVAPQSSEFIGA
Procedure, shortened: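 Read-out is the 665/620 nm HTRF ratio, from a Tb-cryptate anti-phosphotyrosine antibody and streptavidin-XL665 bound to phosphorylated biotin-peptide substrate. The enzyme, A431-derived EGFR (~3 U/ml), was given 15 min compound pre-binding at 22° C in Hepes pH 7.0 with Mg2+/Mn2+ before reaction.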

Row | Structure (SMILES) | IC50 [1] [µM] | IC50 [2] [µM] | inhibition at 20 µM [1] [%]
1 | COc1cc2nc(C)nc(NC(C)c3ccc(-c4cnc5n4CCC5)s3)c2cc1OC (single isomer, unassigned; enantiomer 1) [Example 328, N-{1-[5-(6,7-dihydro-5H-pyrrolo[1,2-a]imidazol-3-yl)thiophen-2-yl]ethyl}-6,7-dimethoxy-2-methylquinazolin-4-amine, Enantiomer 1] | 0.669 | > 20 | –
2 | COc1cc2nc(C)nc(NC(C)c3ccc(-c4cnc5n4CCC5)s3)c2cc1OC (single isomer, unassigned; enantiomer 2) [Example 329, N-{1-[5-(6,7-dihydro-5H-pyrrolo[1,2-a]imidazol-3-yl)thiophen-2-yl]ethyl}-6,7-dimethoxy-2-methylquinazolin-4-amine, Enantiomer 2] | 10.6 | > 20 | –
3 | COc1cc2nc(C)nc(NC(C)c3ccc(-c4ccc(F)cc4CNC(=O)[C@H]4CCCN4)s3)c2cc1OC (stereo in doubt) [Example 316, N-[2-(5-{1-[(6,7-dimethoxy-2-methylquinazolin-4-yl)amino]ethyl}thiophen-2-yl)-5-fluorobenzyl]-prolinamide] | 0.308 | > 20 | –
4 | COc1cc2nc(C)nc(NC(C)c3cccc4scnc34)c2cc1OC (stereo not shown) [Example 14, N-[1-(1,3-benzothiazol-4-yl)ethyl]-6,7-dimethoxy-2-methylquinazolin-4-amine] | 1.83 | > 20 | –
5 | COc1cc2nc(C)nc(NC(C)c3cccc4ccsc34)c2cc1OC (stereo not shown) [Example 15, N-[1-(1-benzothiophen-7-yl)ethyl]-6,7-dimethoxy-2-methylquinazolin-4-amine] | 0.324 | > 20 | –
6 | COc1cc2nc(C)nc(NC(C)c3cc(C)cc4[nH]ncc34)c2cc1OC (stereo not shown) [Example 16, 6,7-dimethoxy-2-methyl-N-[1-(6-methyl-1H-indazol-4-yl)ethyl]quinazolin-4-amine] | 8.17 | > 20 | –
7 | COc1cc2nc(C)nc(NC(C)c3cccc4c3cnn4C)c2cc1OC (stereo not shown) [Example 17, 6,7-dimethoxy-2-methyl-N-[1-(1-methyl-1H-indazol-4-yl)ethyl]quinazolin-4-amine] | 0.712 | > 20 | –
8 | COc1cc2nc(C)nc(NC(C)c3c(F)ccc4[nH]ncc34)c2cc1OC (stereo not shown) [Example 18, N-[1-(5-fluoro-1H-indazol-4-yl)ethyl]-6,7-dimethoxy-2-methylquinazolin-4-amine] | 10.5 | > 20 | –
9 | COc1cc2nc(C)nc(NC(C)c3ccc4c(c3)OCCO4)c2cc1OC (stereo not shown) [Example 19, N-[1-(2,3-dihydro-1,4-benzodioxin-6-yl)ethyl]-6,7-dimethoxy-2-methylquinazolin-4-amine] | – | > 20 | 44
10 | COc1cc2nc(C)nc(NC(C)c3cc4ccccc4o3)c2cc1OC (stereo not shown) [Example 20, N-[1-(1-benzofuran-2-yl)ethyl]-6,7-dimethoxy-2-methylquinazolin-4-amine] | – | > 20 | 41
11 | COc1cc2nc(C)nc(NC(C)c3cccc(OC)c3OC)c2cc1OC (stereo not shown) [Example 21, N-[1-(2,3-dimethoxyphenyl)ethyl]-6,7-dimethoxy-2-methylquinazolin-4-amine] | 11.1 | > 20 | –
12 | COc1cc2nc(C)nc(N[C@H](C)c3cccc(-c4ccccc4CN)c3)c2cc1OC [Example 258, N-{(1R)-1-[2′-(aminomethyl)biphenyl-3-yl]ethyl}-6,7-dimethoxy-2-methylquinazolin-4-amine] | 0.245 | > 20 | –
13 | COc1cc2nc(C)nc(NC(C)c3csc(-c4ccccc4CN)c3)c2cc1OC (stereo not shown) [Example 259, N-[1-{5-[2-(aminomethyl)phenyl]thiophen-3-yl}ethyl]-6,7-dimethoxy-2-methylquinazolin-4-amine] | 0.65 | > 20 | –
14 | COc1cc2nc(C)nc(N[C@H](C)c3cccc(CN)c3)c2cc1OC [Example 260, N-{(1R)-1-[3-(aminomethyl)phenyl]ethyl}-6,7-dimethoxy-2-methylquinazolin-4-amine] | 5.68 | > 20 | –
15 | COc1cc2nc(C)nc(N[C@H](C)c3cccc(-c4cnc5n4CCC5)c3)c2cc1OC [Example 261, N-{(1R)-1-[3-(6,7-dihydro-5H-pyrrolo[1,2-a]imidazol-3-yl)phenyl]ethyl}-6,7-dimethoxy-2-methylquinazolin-4-amine] | 1.1 | > 20 | –
16 | COc1cc2nc(C)nc(NC(C)c3ccc(-c4ccccc4CN(C)C)s3)c2cc1OC (stereo not shown) [Example 262, N-[1-(5-{2-[(dimethylamino)methyl]phenyl}thiophen-2-yl)ethyl]-6,7-dimethoxy-2-methylquinazolin-4-amine] | 0.0511 | > 20 | –

Row | Structure (SMILES) | IC50 [1] [µM] | IC50 [2] [µM] | inhibition at 20 µM [1] [%]
17 | CNCc1ccccc1-c1cc(C(C)Nc2nc(C)nc3cc(OC)c(OC)cc23)cs1 (stereo not shown) [Example 263, 6,7-dimethoxy-2-methyl-N-[1-(5-{2-[(methylamino)methyl]phenyl}thiophen-3-yl)ethyl]quinazolin-4-amine] | 0.324 | > 20 | –
18 | COc1cc2nc(C)nc(NC(C)c3cc(Br)cs3)c2cc1OC (stereo not shown) [Example 264, N-[1-(4-bromothiophen-2-yl)ethyl]-6,7-dimethoxy-2-methylquinazolin-4-amine] | 4.61 | > 20 | –
19 | COc1cc2nc(C)nc(NC(C)c3ccc(-c4cccc(CN)c4)s3)c2cc1OC (stereo not shown) [Example 265, N-[1-{5-[3-(aminomethyl)phenyl]thiophen-2-yl}ethyl]-6,7-dimethoxy-2-methylquinazolin-4-amine] | 1.11 | > 20 | –
20 | COc1cc2nc(C)nc(NC(C)c3ccc(-c4ccc(CN)cc4)s3)c2cc1OC (stereo not shown) [Example 266, N-[1-{5-[4-(aminomethyl)phenyl]thiophen-2-yl}ethyl]-6,7-dimethoxy-2-methylquinazolin-4-amine] | 3.74 | > 20 | –
21 | COc1cc2nc(C)nc(NC(C)c3cc(-c4ccn(CCN5CCCC5)n4)cs3)c2cc1OC (stereo not shown) [Example 267, 6,7-dimethoxy-2-methyl-N-[1-(4-{1-[2-(pyrrolidin-1-yl)ethyl]-1H-pyrazol-3-yl}thiophen-2-yl)ethyl]quinazolin-4-amine] | 1.78 | > 20 | –
22 | CNCc1ccccc1-c1cccc([C@@H](C)Nc2nc(C)nc3cc(OC)c(OC)cc23)c1 [Example 268, 6,7-dimethoxy-2-methyl-N-[(1R)-1-{2′-[(methylamino)methyl]biphenyl-3-yl}ethyl]quinazolin-4-amine] | 0.189 | > 20 | –
23 | COc1cc2nc(C)nc(NC(C)c3cc(-c4ccc(F)cc4CN)cs3)c2cc1OC (stereo not shown) [Example 269, N-[1-{4-[2-(aminomethyl)-4-fluorophenyl]thiophen-2-yl}ethyl]-6,7-dimethoxy-2-methylquinazolin-4-amine] | 0.135 | > 20 | –
24 | COc1cc2nc(C)nc(NC(C)c3cc(-c4ccccc4CN)cs3)c2cc1OC (stereo not shown) [Example 270, N-[1-{4-[2-(aminomethyl)phenyl]thiophen-2-yl}ethyl]-6,7-dimethoxy-2-methylquinazolin-4-amine] | 0.098 | > 20 | –
25 | COc1cc2nc(C)nc(NC(C)c3cc(-c4cnc5n4CCC5)cs3)c2cc1OC (stereo not shown) [Example 272, N-{1-[4-(6,7-dihydro-5H-pyrrolo[1,2-a]imidazol-3-yl)thiophen-2-yl]ethyl}-6,7-dimethoxy-2-methylquinazolin-4-amine] | 2.5 | > 20 | –
26 | COc1cc2nc(C)nc(NC(C)c3cc(-c4ccn(CCO)n4)cs3)c2cc1OC (stereo not shown) [Example 273, 2-[3-(5-{1-[(6,7-dimethoxy-2-methylquinazolin-4-yl)amino]ethyl}thiophen-3-yl)-1H-pyrazol-1-yl]ethanol] | 3.63 | > 20 | –
27 | COc1cc2nc(C)nc(N[C@H](C)c3cccc(-c4ccc(F)cc4CN)c3)c2cc1OC [Example 274, N-{(1R)-1-[2′-(aminomethyl)-4′-fluorobiphenyl-3-yl]ethyl}-6,7-dimethoxy-2-methylquinazolin-4-amine] | 0.214 | > 20 | –
28 | COc1cc2nc(C)nc(NC(C)c3ccc(-c4ccc(CN)o4)s3)c2cc1OC (stereo not shown) [Example 275, N-[1-{5-[5-(aminomethyl)furan-2-yl]thiophen-2-yl}ethyl]-6,7-dimethoxy-2-methylquinazolin-4-amine] | 6.37 | > 20 | –
29 | COc1cc2nc(C)nc(NC(C)c3ccc(-c4ccc(CN)s4)s3)c2cc1OC (stereo not shown) [Example 276, N-{1-[5′-(aminomethyl)-2,2′-bithiophen-5-yl]ethyl}-6,7-dimethoxy-2-methylquinazolin-4-amine] | 2.16 | > 20 | –
30 | COc1cc2nc(C)nc(NC(C)c3ccc(-c4ccccc4CNCC(=O)c4c[nH]c5ccccc45)s3)c2cc1OC (stereo not shown) [Example 277, 2-{[2-(5-{1-[(6,7-dimethoxy-2-methylquinazolin-4-yl)amino]ethyl}thiophen-2-yl)benzyl]amino}-1-(1H-indol-3-yl)ethanone] | 0.263 | > 20 | –
31 | COc1cc2nc(C)nc(NC(C)c3ccc(-c4cccc5sc(C(N)=O)c(N)c45)s3)c2cc1OC (stereo not shown) [Example 278, 3-amino-4-(5-{1-[(6,7-dimethoxy-2-methylquinazolin-4-yl)amino]ethyl}thiophen-2-yl)-1-benzothiophene-2-carboxamide] | – | > 20 | 43
32 | COC(=O)CNCc1ccccc1-c1ccc(C(C)Nc2nc(C)nc3cc(OC)c(OC)cc23)s1 (stereo not shown) [Example 281, methyl N-[2-(5-{1-[(6,7-dimethoxy-2-methylquinazolin-4-yl)amino]ethyl}thiophen-2-yl)benzyl]glycinate] | 0.367 | > 20 | –
